Patent publication US6737383B1, “Herbicidal oxadiazolidines” (priority 1999, dated 2004)

Experiments:
pigweed = experiment: Test B pre/postemergence pigweed; assay type: in vivo, Amaranthus retroflexus
In short: (§1)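 Herbicidal effect was estimated by eye on a ten-point control scale after plants spent twelve to sixteen days in a greenhouse following soil or foliar treatment. Foliar sprays targeted plants at one to four leaves; all doses were formulated in a non-phytotoxic solvent with surfactant.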

giant foxtail = experiment: Test B pre/postemergence giant foxtail; assay type: in vivo, Setaria faberii
In short: as §1

wheat = experiment: Test B pre/postemergence wheat; assay type: in vivo, Triticum aestivum
In short: as §1

duck salad = experiment: Test B flood test duck salad; assay type: in vivo, Heteranthera limosa; details: Pre-emergence
In short: (§2)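 Plants were grown to the 2-leaf stage before treatment with test chemical, then held in a greenhouse for twelve to sixteen days. Injury was visually rated against untreated controls on a 0–10 scale, where 0 is no effect and 10 is complete control.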

cocklebur = experiment: Test B pre/postemergence cocklebur; assay type: in vivo, Xanthium strumarium
In short: as §1

bedstraw = experiment: Test B pre/postemergence bedstraw; assay type: in vivo, Galium aparine
In short: as §1

surinam grass = experiment: Test B pre/postemergence surinam grass; assay type: in vivo, Brachiaria decumbens
In short: as §1

rape = experiment: Test B pre/postemergence rape; assay type: in vivo, Brassica napus
In short: as §1

smallflower flatsedge = experiment: Test B flood test smallflower flatsedge; assay type: in vivo, Cyperus difformis; details: Pre-emergence
In short: as §2

velvetleaf = experiment: Test B pre/postemergence velvetleaf; assay type: in vivo, Abutilon theophrasti
In short: as §1

soybean = experiment: Test B pre/postemergence soybean; assay type: in vivo, Glycine max
In short: as §1

wild oat = experiment: Test B pre/postemergence wild oat; assay type: in vivo, Avena fatua
In short: as §1

morningglory = experiment: Test B pre/postemergence morningglory; assay type: in vivo, Ipomoea hederacea
In short: as §1

bamyardgrass = experiment: Test B flood test barnyardgrass; assay type: in vivo, Echinochloa crus-galli; details: Pre-emergence
In short: as §2

blackgrass = experiment: Test B pre/postemergence blackgrass; assay type: in vivo, Alopecurus myosuroides
In short: as §1

purple nutsedge = experiment: Test B pre/postemergence purple nutsedge; assay type: in vivo, Cyperus rotundus
In short: as §1

[1] = Postemergence, Rate 1000 g/ha, scale 0 to 10 (0 no effect, 10 complete control)
[2] = Preemergence, Rate 250 g/ha, scale of 0 to 10 where 0 is no effect and 10 is complete control
[3] = Preemergence, Rate 500 g/ha, scale of 0 to 10 where 0 is no effect and 10 is complete control
[4] = Rate 125 g/ha, Postemergence, scale of 0 to 10 where 0 is no effect and 10 is complete control
[5] = Rate 250 g/ha, Postemergence, scale of 0 to 10 where 0 is no effect and 10 is complete control
[6] = Rate 1000 g/ha, Preemergence, scale 0 to 10 (0 no effect, 10 complete control)
[7] = Rate 1000 g/ha, scale 0 to 10 (0 no effect, 10 complete control)
[8] = Rate 125 g/ha, flood test species, scale 0 to 10 where 0 is no effect and 10 is complete control
[9] = Rate 250 g/ha, flood-test species, scale 0 to 10, 0 is no effect, 10 is complete control
[10] = Rate 500 g/ha, flood test species, scale 0 to 10 (0 no effect, 10 complete control)
[11] = Rate 500 g/ha, Postemergence, scale 0 to 10, 0 no effect, 10 complete control

CCOC(=O)C(C)N(C(=O)n1oc(=O)n(C(C)C)c1=O)c1ccc(F)cc1 (stereo not shown) [Compound 302]
Redroot pigweed plant response rating (pigweed; [1]): 3 | Redroot pigweed plant response rating (0 to 10 scale) (pigweed; Preemergence, Rate 125 g/ha): 0 | Redroot pigweed plant response rating (pigweed; [2]): 0 | Redroot pigweed plant response rating (pigweed; [3]): 0 | Redroot pigweed plant response rating (pigweed; [4]): 1 | Plant response rating, Redroot pigweed (pigweed; [5]): 2 | Plant response rating, Redroot pigweed (pigweed; [6]): 3 | Giant foxtail plant response rating (giant foxtail; [1]): 7 | Giant foxtail plant response rating (0 to 10 scale) (giant foxtail; Preemergence, Rate 125 g/ha): 6 | Giant foxtail plant response rating (giant foxtail; [2]): 7 | Giant foxtail plant response rating (giant foxtail; [3]): 9 | Giant foxtail plant response rating (giant foxtail; [4]): 1 | Plant response rating, Giant foxtail (giant foxtail; [5]): 2 | Plant response rating, Giant foxtail (giant foxtail; [6]): 10 | Wheat plant response rating (wheat; [1]): 1 | Wheat plant response rating (0 to 10 scale) (wheat; Preemergence, Rate 125 g/ha): 0 | Wheat plant response rating (wheat; [2]): 0 | Wheat plant response rating (wheat; [3]): 0 | Wheat plant response rating (wheat; [4]): 0 | Plant response rating, Wheat (wheat; [5]): 0 | Plant response rating, Wheat (wheat; [6]): 0 | Ducksalad plant response rating (duck salad; [7]): 0 | Ducksalad plant response rating (duck salad; [8]): 0 | Ducksalad plant response rating (duck salad; [9]): 0 | Ducksalad plant response rating (duck salad; [10]): 0 | Cocklebur plant response rating (cocklebur; [1]): 0 | Cocklebur plant response rating (0 to 10 scale) (cocklebur; Preemergence, Rate 125 g/ha): 0 | Cocklebur plant response rating (cocklebur; [2]): 0 | Cocklebur plant response rating (cocklebur; [3]): 0 | Cocklebur plant response rating (cocklebur; [4]): 0 | Plant response rating, Cocklebur (cocklebur; [5]): 0 | Cocklebur plant response rating (cocklebur; [11]): 0 | Plant response rating, Cocklebur (cocklebur; [6]): 0 | Bedstraw plant response rating (bedstraw; [1]): 0 | Bedstraw plant response rating (0 to 10 scale) (bedstraw; Preemergence, Rate 125 g/ha): 0 | Bedstraw plant response rating (bedstraw; [2]): 0 | Bedstraw plant response rating (bedstraw; [3]): 0 | Bedstraw plant response rating (bedstraw; [4]): 0 | Plant response rating, Bedstraw (bedstraw; [5]): 0 | Bedstraw plant response rating (bedstraw; [11]): 0 | Plant response rating, Bedstraw (bedstraw; [6]): 0 | B. signalgrass plant response rating (surinam grass; [1]): 0 | B. signalgrass plant response rating (0 to 10 scale, 0 is no effect, 10 is complete control) (surinam grass; Preemergence, Rate 125 g/ha): 0 | B. signalgrass plant response rating (surinam grass; [2]): 0 | B. signalgrass plant response rating (surinam grass; [3]): 3 | B. signalgrass plant response rating (surinam grass; [4]): 0 | Plant response rating, B. signalgrass (surinam grass; [5]): 0 | B. signalgrass plant response rating (surinam grass; [11]): 0 | Plant response rating, B. signalgrass (surinam grass; [6]): 7 | Rape plant response rating (rape; [1]): 0 | Rape plant response rating (0 to 10 scale) (rape; Preemergence, Rate 125 g/ha): 0 | Rape plant response rating (rape; [2]): 0 | Rape plant response rating (rape; [4]): 0 | Plant response rating, Rape (rape; [5]): 0 | Plant response rating, Rape (rape; [6]): 8 | S. Flatsedge plant response rating (smallflower flatsedge; [7]): 0 | S. Flatsedge plant response rating (smallflower flatsedge; [8]): 0 | S. Flatsedge plant response rating (smallflower flatsedge; [9]): 0 | S. Flatsedge plant response rating (smallflower flatsedge; [10]): 0 | Velvetleaf plant response rating (velvetleaf; [1]): 0 | Velvetleaf plant response rating (0 to 10 scale) (velvetleaf; Preemergence, Rate 125 g/ha): 0 | Velvetleaf plant response rating (velvetleaf; [2]): 0 | Velvetleaf plant response rating (velvetleaf; [3]): 0 | Velvetleaf plant response rating (velvetleaf; [4]): 0 | Plant response rating, Velvetleaf (velvetleaf; [5]): 0 | Plant response rating, Velvetleaf (velvetleaf; [6]): 4 | Soybean plant response rating (soybean; [1]): 5 | Soybean plant response rating (0 to 10 scale) (soybean; Preemergence, Rate 125 g/ha): 0 | Soybean plant response rating (soybean; [2]): 0 | Soybean plant response rating (soybean; [3]): 0 | Soybean plant response rating (soybean; [4]): 2 | Plant response rating, Soybean (soybean; [5]): 3 | Plant response rating, Soybean (soybean; [6]): 0 | Wild oats plant response rating (wild oat; [1]): 0 | Wild oats plant response rating (0 to 10 scale) (wild oat; Preemergence, Rate 125 g/ha): 0 | Wild oats plant response rating (wild oat; [2]): 2 | Wild oats plant response rating (wild oat; [3]): 5 | Wild oats plant response rating (wild oat; [4]): 0 | Plant response rating, Wild oats (wild oat; [5]): 0 | Plant response rating, Wild oats (wild oat; [6]): 6 | Morningglory plant response rating (morningglory; [1]): 2 | Morningglory plant response rating (0 to 10 scale) (morningglory; Preemergence, Rate 125 g/ha): 0 | Morningglory plant response rating (morningglory; [2]): 0 | Morningglory plant response rating (morningglory; [3]): 0 | Morningglory plant response rating (morningglory; [4]): 1 | Plant response rating, Morningglory (morningglory; [5]): 2 | Plant response rating, Morningglory (morningglory; [6]): 0 | Barnyardgrass plant response rating (bamyardgrass; [7]): 0 | Barnyardgrass plant response rating (bamyardgrass; [8]): 0 | Barnyardgrass plant response rating (bamyardgrass; [9]): 0 | Barnyardgrass plant response rating (bamyardgrass; [10]): 0 | Blackgrass plant response rating (blackgrass; [1]): 6 | Blackgrass plant response rating (0 to 10 scale) (blackgrass; Preemergence, Rate 125 g/ha): 0 | Blackgrass plant response rating (blackgrass; [2]): 2 | Blackgrass plant response rating (blackgrass; [3]): 5 | Blackgrass plant response rating (blackgrass; [4]): 0 | Plant response rating, Blackgrass (blackgrass; [5]): 0 | Blackgrass plant response rating (blackgrass; [11]): 2 | Plant response rating, Blackgrass (blackgrass; [6]): 6 | Nutsedge plant response rating (purple nutsedge; [1]): 0 | Nutsedge plant response rating (0 to 10 scale) (purple nutsedge; Preemergence, Rate 125 g/ha): 0 | Nutsedge plant response rating (purple nutsedge; [2]): 0 | Nutsedge plant response rating (purple nutsedge; [3]): 0 | Nutsedge plant response rating (purple nutsedge; [4]): 0 | Plant response rating, Nutsedge (purple nutsedge; [5]): 0 | Plant response rating, Nutsedge (purple nutsedge; [6]): 0
